Patent US5294713A, “2-piperazinone compounds and their use” (Takeda Chemical Industries, Ltd., priority 1991, dated 1994)

How the values were obtained:
[1] = tested on: guinea pig platelet aggregation; experiment: Inhibitory action on guinea pig platelet aggregation (ADP-stimulated PRP); format: cell-based; conditions: Cavia porcellus, ADP final concentration 1 μM, in vitro, read-out: Inhibitory effect on platelet aggregation in vitro (IC50) guinea pig
Method: TEST EXAMPLE 1 [I] Inhibitory action on guinea pig platelet aggregation
Blood was collected in 3.15% sodium citrate (1 ml for 9 ml of blood) by cardiac puncture from male guinea pig. The blood was centrifuged at 1000 g for 3 to 5 seconds at room temperature to obtain platelet rich plasma (PRP). The PRP was further centrifuged at 1000 g for 10 minutes to obtain platelet poor plasma (PPP). The number of platelets was measured using an automatic blood cell counter (Sysmex E2500, Toaiyou-densi). The platelet density of PRP was adjusted to 400,000/μl with PPP. Platelet aggregation was measured using an 8-channel aggregometer (NBS HEMA TRACER VI Niko Bioscience Inc.). The PRP (250 μl ) was preincubated at 37° C. for 2 minutes. and then incubated for 2 minutes. with 25 μl of physiological saline or various concentrations of test drugs followed by stimulation with ADP (final concentration: 1 μM). By comparing the maximum aggregation rates of the control and those of test drugs, the inhibitory rates were determined. The results are shown in [Table 1]-[Table 3].

[2] = tested on: human platelet aggregation; experiment: Inhibitory action on human platelet aggregation (ADP-stimulated PRP); format: cell-based; conditions: ADP final concentration 3 μM, in vitro, read-out: Inhibitory effect on platelet aggregation in vitro (IC50) man
Method: [II] Inhibitory action on human platelet aggregation
Human blood was collected in 3.8% sodium citrate (1 ml for 9 ml of blood) by venipuncture from healthy male volunteers. The blood was centrifuged at 1000 g for 3 to 5 seconds at room temperature to obtain platelet rich plasma (PRP). The PRP was further centrifuged at 1000 g for 10 minutes to obtain platelet poor plasma (PPP). The number of platelets was measured using an automatic blood cell counter (Sysmex E2500, Toaiyou-densi). The platelet density of PRP was adjusted to 300,000/μl with PPP. Platelet aggregation was measured using an 8-channel aggregometer (NBS HEMA TRACER VI Niko Bioscience Inc.). The PRP (250 μl) was preincubated at 37° C. for 2 minutes. and then incubated for 2 minutes. with 25 μl of physiological saline or various concentrations of test drugs followed by stimulation with ADP (final concentration: 3 μM). By comparing the maximum aggregation rates of the control and those of test drugs, the inhibitory rates were determined. The results are shown in [Table 1]-[Table 3].

GPIIb/IIIa = molecular target: T1, GPIIb/IIIa (Homo sapiens, UniProt P05106+P08514); experiment: Inhibition of fibrinogen binding to GPIIb/IIIa; conditions: purified GPIIb/IIIa from HEL cells, biotinylated human fibrinogen 1 nM
T1 construct: Purification of GPIIb/IIIa from HEL Cells; endogenous in cells; host or cells: HEL cells (HEL 92.1.7; ATCC TIB180), human erythroleukemia; GPIIb/IIIa solubilized in Triton X-100, purified and adsorbed on microtiter plates
T1 sequence (P08514 32-887 limits assumed): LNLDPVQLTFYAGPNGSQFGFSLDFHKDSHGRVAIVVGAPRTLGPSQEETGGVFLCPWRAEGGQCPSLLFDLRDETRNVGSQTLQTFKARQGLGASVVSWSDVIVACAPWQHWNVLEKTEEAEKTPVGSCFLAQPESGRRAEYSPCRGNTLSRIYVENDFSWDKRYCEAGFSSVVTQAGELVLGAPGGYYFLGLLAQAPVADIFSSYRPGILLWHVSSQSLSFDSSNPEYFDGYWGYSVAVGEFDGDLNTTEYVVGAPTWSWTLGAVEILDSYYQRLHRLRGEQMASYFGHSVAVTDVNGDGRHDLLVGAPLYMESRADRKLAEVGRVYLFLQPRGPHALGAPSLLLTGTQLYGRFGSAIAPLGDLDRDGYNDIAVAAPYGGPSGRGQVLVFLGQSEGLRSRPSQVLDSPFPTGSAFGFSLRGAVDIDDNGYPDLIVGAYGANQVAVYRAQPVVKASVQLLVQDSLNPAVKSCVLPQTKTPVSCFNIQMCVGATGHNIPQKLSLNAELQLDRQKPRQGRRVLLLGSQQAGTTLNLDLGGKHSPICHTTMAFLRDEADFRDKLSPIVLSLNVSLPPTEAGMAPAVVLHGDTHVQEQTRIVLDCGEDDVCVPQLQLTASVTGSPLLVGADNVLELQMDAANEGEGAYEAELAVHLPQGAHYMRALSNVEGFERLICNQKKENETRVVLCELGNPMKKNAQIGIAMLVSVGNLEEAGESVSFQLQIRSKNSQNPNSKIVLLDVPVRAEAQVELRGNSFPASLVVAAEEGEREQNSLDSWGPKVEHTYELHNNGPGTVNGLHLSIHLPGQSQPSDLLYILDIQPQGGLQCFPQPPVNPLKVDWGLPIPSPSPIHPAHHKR
T1 sequence (P08514 891-1039 limits assumed): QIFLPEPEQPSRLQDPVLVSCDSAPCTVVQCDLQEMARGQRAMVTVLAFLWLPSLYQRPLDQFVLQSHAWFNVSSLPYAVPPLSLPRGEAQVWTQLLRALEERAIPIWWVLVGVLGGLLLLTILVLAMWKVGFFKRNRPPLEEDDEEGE
T1 sequence (P05106 27-788): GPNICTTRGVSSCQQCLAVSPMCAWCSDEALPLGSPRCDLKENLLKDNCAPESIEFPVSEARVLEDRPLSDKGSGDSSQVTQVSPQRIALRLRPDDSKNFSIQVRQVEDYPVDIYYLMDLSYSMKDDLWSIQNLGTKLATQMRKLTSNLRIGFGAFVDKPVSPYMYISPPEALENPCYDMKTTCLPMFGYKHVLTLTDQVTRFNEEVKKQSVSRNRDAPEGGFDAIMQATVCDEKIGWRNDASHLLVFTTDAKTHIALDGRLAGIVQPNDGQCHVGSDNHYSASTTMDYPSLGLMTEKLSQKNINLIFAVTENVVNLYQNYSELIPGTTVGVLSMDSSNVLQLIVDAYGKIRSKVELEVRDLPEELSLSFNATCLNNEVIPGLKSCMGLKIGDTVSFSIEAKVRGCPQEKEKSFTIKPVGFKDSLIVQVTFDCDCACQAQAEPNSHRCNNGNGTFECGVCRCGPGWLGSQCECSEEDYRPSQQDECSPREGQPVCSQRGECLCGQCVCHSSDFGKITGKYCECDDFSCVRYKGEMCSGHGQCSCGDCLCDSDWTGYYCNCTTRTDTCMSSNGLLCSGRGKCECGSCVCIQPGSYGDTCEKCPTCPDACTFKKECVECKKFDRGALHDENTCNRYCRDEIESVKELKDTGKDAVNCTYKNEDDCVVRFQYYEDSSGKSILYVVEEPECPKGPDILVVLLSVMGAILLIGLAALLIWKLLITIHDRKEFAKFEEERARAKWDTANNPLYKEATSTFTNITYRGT
Method: (1) Cultibation of Cells Derived from Human Erythroleukemia (Hereinafter Referred to as HEL Cells)
HEL cells (HEL 92. 1. 7; ATCC No. TIB180) were purchased from ATCC (Rockville, Md., U.S.A.). The cells were grown in RPMI medium containing 40 mM N-2-hydroxyethylpiperazin-N'-2-ethanesulfonic acid (hereinafter referred to as HEPES) (pH 7.0), 100 μg/ml of Kanamycin and 10% FCS (GIBCO Laboratories, Grand Island, N.Y., U.S.A.). Cultivation was conducted at 37° C in the presence of 5% CO2.
(2) Purification of GPIIb/IIIa from HEL Cells
Purification of GPIIb/IIIa was performed using the following modification of the method of L. A. Fitzgerald et al. [J. Biol. Chem., 262, 3936 (1987)]. The purification was conducted at room temperature unless specifically mentioned. From 7 L of the culture broth on 7th day of the cultibation (floating cells), the cells were collected by centrifugation (1,000×g, 10 minutes, 4° C.), which were washed with 20 mM Tris-HCl(pH 7.5) containing 1 mM EDTA and 150 mM NaCl. The cells were suspended in 80 ml of a solubilized buffer [20 mM Tris-HCl, 150 mM NaCl, 1% Triton X-100, 1 mM MgCl2, 1 mM CaCl2, 0.1 mM (p-amidinophenyl)methanesulfonyl fluoride (hereinafter referred to as APMSF), 10 nM leupeptin, 0.02% NaN3, pH 7.4)].
The cell suspension was gently mixed for 30 minutes at 4° C. to solubilize GPIIb/IIIa. The suspension was subjected to centrigugation (100,000×g, one hour) at 4° C. to remove cell debris to obtain a cell-extraction solution (60 ml). […] The fraction which passed through the column was charged on the ConA-Sepharose column (Pharmacia LKB, .phi. 1.0×15 cm, 20 ml/hr) to allow GPIIb/IIIa to be adsorbed thereon, then GPIIb/IIIa was eluted with column buffer solution containing 0.5 M methyl α-D-mannopyranoside. The eluate thus obtained was allowed to pass through the DEAE-Toyopearl 650 M column (Tosoh, .phi. 1.6×10.5 cm, 20 ml/hr) equilibrated with the same column buffer to remove contaminating proteins.
(3) Biotinylation of Human Fibrinogen
Biotinylation of human fibrinogen was performed by the following procedure [I. F. Charo et al., J. Biol. Chem., 266, 1415 (1991)]. Human fibrinogen (Kabi Vitrum AB, Stockholm, Sweden) was dissolved in PBS so as to make its concentration 5 mg/ml. The solution was dialyzed overnight at 4° C. against 1 L of 0.1 M NaHCO3 -0.1 M NaCl (pH 8.2). Insolubles were then removed by centrifugation (100,000×g, 30 minutes), and the solution was diluted with the same buffer to the protein concentration of 1 mg/ml. To thus-diluted solution was added powdery sulfo-N-hydroxysuccinimidobiotin (Pierce Chemical Co., Rockford, Ill., U.S.A.) so as to make its final concentration 0.2 mg/ml and gently mixed to perform biotinylate fibrinogen. The resultant was subjected to dialysis against 50 mM Tris-HCl (pH 7.4) - 100 mM NaCl-0.05% NaN3. The dialysate was distributed and stored at 4° C.
(4) Inhibition Assay for Fibrinogen Binding to GPIIb/IIIa
This experiment was performed using a modification of the method described in the above-mentioned I. F. Charo et al. report. The purified GPIIb/IIIa was diluted with the buffer A (20 mM Tris-HCl, 150 mM NaCl, 1 mM CaCl2, 0.02% NaN3, pH 7.4) to a concentration of 1 μg/ml. The diluted solution was added to 96-well microtiter plates (MaxiSorp; Nunc, Denmark) at 100 μl per well, which were left standing at 4° C. overnight to allow GPIIb/IIIa to be adsorbed on the microplates. The plate was aspirated, and then 150 μl of the buffer B (35 mg/ml BSA, 50 mM Tris-HCl, 100 mM NaCl, 2 mM CaCl2, 0.02%, NaN3, pH 7.4) was added to the plate, and blocking was performed at 30° C. for 2 hours. The plate was washed twice with 250 μl each of the buffer C (1 mg/ml BSA, 50mM Tris-HCl, 100 mM NaCl, 2 mM CaCl2, pH 7.4).

SMILES	IC50 [1]	IC50 [2]	IC50 (GPIIb/IIIa)
C[C@@H](C(=O)O)N1CCN(C(=O)CNC(=O)c2ccc(C(=N)N)cc2)[C@@H](CC(=O)O)C1=O [compound 69]	1500 nM	1600 nM	19 nM
N=C(N)c1ccc(C(=O)NCC(=O)N2CCN(CC(=O)O)C(=O)[C@@H]2CC(N)=O)cc1 [compound 71]	110 nM	74 nM	0.92 nM
NCCc1ccc(C(=O)NCC(=O)N2CCN(CC(=O)O)C(=O)[C@@H]2CCC(=O)O)cc1 [compound 76]	110 nM	150 nM	1 nM
CN(C)CCc1ccc(C(=O)NCC(=O)N2CCN(CC(=O)O)C(=O)[C@@H]2CCC(=O)O)cc1 [compound 77]	2500 nM	4700 nM	45 nM
COC(=O)CC[C@H]1C(=O)N(CC(=O)O)CCN1C(=O)CNC(=O)c1ccc(CCN)cc1 [compound 80]	120 nM	110 nM	0.89 nM
NCCc1ccc(C(=O)NCC(=O)N2CCN(CC(=O)O)C(=O)[C@@H]2CCC(N)=O)cc1 [compound 84]	110 nM	120 nM	1 nM
CN(C)CCc1ccc(C(=O)NCC(=O)N2CCN(CC(=O)O)C(=O)[C@@H]2CCC(N)=O)cc1 [compound 85]	4100 nM	5600 nM	32 nM
NCCc1ccc(C(=O)NCC(=O)N2CCN(CC(=O)O)C(=O)C2)cc1 [compound 87]	150 nM	180 nM	1.6 nM
NCCc1ccc(C(=O)NCC(=O)N2CCN(CC(=O)O)C(=O)[C@@H]2CC(N)=O)cc1 [compound 88]	84 nM	140 nM	2.3 nM
NCCc1ccc(C(=O)NCC(=O)N2CCN(CC(=O)O)C(=O)[C@@H]2Cc2ccccc2)cc1 [compound 89]	200 nM	380 nM	3.6 nM
